Data taken from patent publication US12509460B2 (Skyhawk Therapeutics, Inc., priority 2019, dated 2025).
“And” between values parts separate entries of the source, which are not always exact repeats. Equal entries are not always repeated. Where two headings read alike, the source gives them in different places.

Assays:
[1] = Quantitative splicing assay (HTT), qPCR; format: cell-based, human; conditions: Homo sapiens, GM04724, 24 h, GM04724 lymphoblasts, read-out: HTT Splicing: E49-50 EC50
Experimental: Example A9: Quantitative Splicing Assay (HTT)
GM04724 (CAG 70/20) Huntington's disease patient lymphoblasts (Coriell) are plated in 96-well v-bottom plates at 50,000 cells/well. Immediately after plating, cells are dosed with compound for 24 h at concentrations ranging from 2.5 uM to 0.15 nM (0.1% DMSO). Treated cells are lysed and cDNA synthesized using the Fast Advanced Cells-to-Ct kit (Thermofisher A35378) according to the manufacturer's instructions. 2 uL of each cDNA are used in qPCR reactions to confirm the compound-induced inclusion of a cryptic exon within intron 49 of the Huntingtin (HTT) transcripts. The qPCR reactions are prepared in 384-well plates in 10 uL volume, using TagMan™ Fast Advanced Master Mix [ThermoFisher, 4444965] with primers and probes shown in the table below. Reactions are run in a Quant studio 6 qPCR instrument with default settings.

[2] = test system: MDR1-MDCK cell monolayers; test: Blood-brain-barrier (BBB) penetration potential via MDCK-MDR1 permeability assay
MDR1 (P-gp) = test: as above; conditions: dog; for Papp A→B at 120 min, 5 μM: MDCK-MDR1, pH 7.4, MDCK-MDR1: Papp A-B; for Papp B→A at 120 min, 5 μM: MDCK-MDR1, pH 7.4, MDCK-MDR1: Papp B-A
MDR1 = test: as above; conditions: dog, MDCK-MDR1, pH 7.4, MDCK-MDR1: Efflux
[3] = test system: SMN protein in spinal muscular atrophy (SMA) patient fibroblasts (GM03813, Coriell); test: SMN protein assay, Mesoscale Discovery (MSD); format: cell-based, human; conditions: for EC50: read-out: SMN2 protein EC50
In short: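 Absolute SMN levels were quantified by MSD against an SMN protein standard curve (1 μg/ml to 19.5 pg/ml) run on each plate. Samples were lysates of GM03813 patient fibroblasts (7000 cells/well) treated 48 hours with compound doses from 2.5 μM down to 0.6 nM.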

[4] = test system: mHTT protein in GM04724 (CAG 70/20) Huntington's disease patient lymphoblast cells; test: mHTT protein assay, 2B7-MW1 assay via Mesoscale Discovery (MSD); format: cell-based, human
In short: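 Signal from the 2B7-MW1 antibody pair on MSD, rising with polyQ length and smaller HTT fragments, measured mHTT after 48 h compound exposure (0.6 nM–10 μM) in GM04724 cells. A parallel replicate plate gave CellTiter Glo viability.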

[5] = SMA patient fibroblasts GM03813, 48 hours, MSD
[6] = GM04724 Huntington's disease patient lymphoblasts

Row | SMILES | EC50 ([1]; qPCR) [nM] | MDCK-MDR1: % Recov A-B ([2]; A-B direction) | MDCK-MDR1: % Recov B-A ([2]; B-A direction) | Papp A→B at 120 min, 5 μM (MDR1 (P-gp); A-B direction) [×10⁻⁶ cm/s] | Papp B→A at 120 min, 5 μM (MDR1 (P-gp); B-A direction) [×10⁻⁶ cm/s] | efflux ratio at 120 min, 5 μM (MDR1; efflux ratio) | EC50 [3, 5] [nM] | EC50 [4, 6] [nM] | SMN2 protein EC50 [3, 5] | EC50 [1] [nM] | MDCK-MDR1: % Recov A-B ([2]; A-B) [%] | MDCK-MDR1: % Recov B-A ([2]; B-A) [%] | Papp A→B at 120 min, 5 μM (MDR1 (P-gp); A-B) [×10⁻⁶ cm/s] | Papp B→A at 120 min, 5 μM (MDR1 (P-gp); B-A) [×10⁻⁶ cm/s] | efflux ratio at 120 min, 5 μM (MDR1) | SMN2 protein EC50 ([3]; SMA patient fibroblasts (GM03813), 48 hours) | EC50 ([4]; GM04724 (CAG 70/20) Huntington's disease patient lymphoblasts) [nM] | MDCK-MDR1: Papp A-B ([2]; A-B direction) | MDCK-MDR1: Papp B-A ([2]; B-A direction) | MDCK-MDR1: Efflux ([2]; efflux ratio)
1 | CN(c1ccc(-c2cc3ccncc3s2)nn1)[C@H]1C[C@@H]2CC[C@@H](N2)[C@H]1F [Compound 65B, (1R,2R,3S,5S)-2-fluoro-N-methyl-N-(6-(thieno[2,3-c]pyridin-2-yl)pyridazin-3-yl)-8-azabicyclo[3.2.1]octan-3-amine] | 101 to 500 | 84% | 87% | 6.9 | 54.6 | 8 | 16 to 50 | 51 to 100 | – | – | – | – | – | – | – | – | – | – | – | –
2 | CN(c1ccc(-c2ccc(-c3cnn(C(F)F)c3)cc2O)nn1)[C@H]1C[C@@H]2CC[C@@H](N2)[C@H]1F [Compound 20B, 5-(1-(difluoromethyl)-1H-pyrazol-4-yl)-2-(6-(((1R,2R,3S,5S)-2-fluoro-8-azabicyclo[3.2.1]octan-3-yl)(methyl)amino)pyridazin-3-yl)phenol] | 0.01 to 15 | 45% | 65% | 3.59 | 39.2 | 11 | – | 0.01 to 15 | E (501 ≤ E ≤ 10.000) | – | – | – | – | – | – | – | – | – | – | –
3 | CN(c1ccc(-c2ccc(-n3nccn3)cc2O)nn1)[C@H]1C[C@@H]2CCC[C@@H](N2)[C@H]1F [Compound 5B, 2-(6-(((1R,2R,3S,5S)-2-fluoro-9-azabicyclo[3.3.1]nonan-3-yl)(methyl)amino)pyridazin-3-yl)-5-(2H-1,2,3-triazol-2-yl)phenol] | 0.01 to 15 | 30% | 52% | 5.84 | 9.91 | 2 | 101 to 500 | 0.01 to 15 | – | – | – | – | – | – | – | – | – | – | – | –
4 | CN(c1ccc(-c2cc3ccncc3s2)nn1)[C@@H]1C[C@H]2CC[C@H](N2)[C@@H]1F [Compound 65A, (1S,2S,3R,5R)-2-fluoro-N-methyl-N-(6-(thieno[2,3-c]pyridin-2-yl)pyridazin-3-yl)-8-azabicyclo[3.2.1]octan-3-amine] | 10 to 501 | 94% | 93% | 5.82 | 50.5 | 9 | 51 to 100 | 101 to 500 | – | – | – | – | – | – | – | – | – | – | – | –
5 | CN(c1ccc(-c2cc(C#N)c(F)cc2O)nn1)[C@H]1C[C@@H]2CC[C@@H](N2)[C@H]1F [Compound 72B, 2-fluoro-5-(6-(((1R,2R,3S,5S)-2-fluoro-8-azabicyclo[3.2.1]octan-3-yl)(methyl)amino)pyridazin-3-yl)-4-hydroxybenzonitrile] | 101 to 500 | 78% | 74% | 10.9 | 36.4 | 3 | 51 to 100 | 101 to 500 | – | – | – | – | – | – | – | – | – | – | – | –
6 | CN(c1ccc(-c2cc3cnccc3cc2O)nn1)[C@@H]1C[C@H]2CCC[C@H](N2)[C@@H]1F [Compound 121A, 7-(6-(((1S,2S,3R,5R)-2-fluoro-9-azabicyclo[3.3.1]nonan-3-yl)(methyl)amino)pyridazin-3-yl)isoquinolin-6-ol] | – | – | – | – | – | – | – | – | – | 51 to 100 | 81 | 95 | 2.65 | 29.8 | 11 | E (501 ≤ E ≤ 10.000) | 16 to 50 | – | – | –
7 | CN(c1ccc(-c2ccc(-c3nnco3)cc2O)nn1)[C@@H]1C[C@H]2CC[C@H](N2)[C@@H]1F [Compound 44A, 2-(6-(((1S,2S,3R,5R)-2-fluoro-8-azabicyclo[3.2.1]octan-3-yl)(methyl)amino)pyridazin-3-yl)-5-(1,3,4-oxadiazol-2-yl)phenol] | 16 to 50 | 87% | 86% | 8.12 | 50.9 | 6 | 101 to 500 | 0.01 to 15 | – | – | – | – | – | – | – | – | – | – | – | –
8 | CN(c1ccc(-c2cc3ncn(C)c(=O)c3cc2O)nn1)[C@@H]1C[C@H]2CC[C@H](N2)[C@@H]1F [Compound 51A, 7-(6-(((1S,2S,3R,5R)-2-fluoro-8-azabicyclo[3.2.1]octan-3-yl)(methyl)amino)pyridazin-3-yl)-6-hydroxy-3-methylquinazolin-4(3H)-one] | 0.01 to 15 | 94% | 86% | 0.81 | 38 | 47 | – | 0.01 to 15 | E (501 ≤ E ≤ 10.000) | – | – | – | – | – | – | – | – | – | – | –
9 | CN(c1ccc(-c2ccc(-c3cnn(C)c3)cc2O)nn1)[C@@H]1C[C@H]2CC(F)(F)[C@@H](C1)N2 [Compound 3A, 2-(6-(((1S,3R,5R)-6,6-difluoro-8-azabicyclo[3.2.1]octan-3-yl)(methyl)amino)pyridazin-3-yl)-5-(1-methyl-1H-pyrazol-4-yl)phenol] | 0.01 to 15 | 75% | 81% | 19.3 | 33.8 | 2 | 16 to 50 | 16 to 50 | – | – | – | – | – | – | – | – | – | – | – | –
10 | CN(c1ccc(-c2ccc(-n3ccnc3)cc2O)nn1)[C@@H]1C[C@H]2CC(F)(F)[C@@H](C1)N2 [Compound 13A, 2-(6-(((1S,3R,5R)-6,6-difluoro-8-azabicyclo[3.2.1]octan-3-yl)(methyl)amino)pyridazin-3-yl)-5-(1H-imidazol-1-yl)phenol] | 0.01 to 15 | 92% | 86% | 8.7 | 50.5 | 6 | 0.01 to 15 | 16 to 50 | – | – | – | – | – | – | – | – | – | – | – | –
11 | Cc1cnc(-c2ccc(-c3ccc(N(C)C4CC5CCC(N5)C4F)nn3)c(O)c2)o1 (single isomer, unassigned) [Compound 48B] | 16 to 50 | 67% | 84% | 6.56 | 24.5 | 4 | 0.01 to 15 | 16 to 50 | – | – | – | – | – | – | – | – | – | – | – | –
12 | CN(c1ccc(-c2ccc(-c3cnn(C(F)F)c3)cc2O)nn1)[C@@H]1C[C@H]2CC[C@H](N2)[C@@H]1F [Compound 20A, 5-(1-(difluoromethyl)-1H-pyrazol-4-yl)-2-(6-(((1S,2S,3R,5R)-2-fluoro-8-azabicyclo[3.2.1]octan-3-yl)(methyl)amino)pyridazin-3-yl)phenol] | 16 to 50 | 47% | 71% | 4.68 | 39.9 | 9 | 16 to 50 | 16 to 50 | – | – | – | – | – | – | – | – | – | – | – | –
13 | CN(c1ccc(-c2cc3c(=O)[nH]ccc3s2)nn1)[C@@H]1C[C@H]2CC[C@H](N2)[C@@H]1F [Compound 6A, 2-(6-(((1S,2S,3R,5R)-2-fluoro-8-azabicyclo[3.2.1]octan-3-yl)(methyl)amino)pyridazin-3-yl)thieno[3,2-c]pyridin-4(5H)-one] | 10 to 501 | 90% and 95% | 91% and 82% | 0.09 | 6.69 | 74 | 51 to 100 | – | E (501 ≤ E ≤ 10.000) | – | – | – | – | – | – | – | – | 0.06 10^−6, cm/s | 7.34 10^−6, cm/s | 121
14 | CN(c1ccc(-c2ccc(-c3cnn(C)c3)cc2O)nn1)C1CC2COCC(N2)C1F (single isomer, unassigned) [Compound 80A] | 51 to 100 | 68% | 88% | 4.93 | 53.6 | 11 | 101 to 500 | 51 to 100 | – | – | – | – | – | – | – | – | – | – | – | –
